# In US10343903B2, “Cationic polymer coated mesoporous silica nanoparticles and uses thereof” (The Regents of the University of California, priority 2010, dated 2019):
# How the values were obtained:
# KB-V1 cells [1] = assay: Cytotoxicity of Dox formulations in KB-V1 cells (MTS, 72 hrs); format: cell-based; settings: KB-V1, Tariquidar 50 nM
# Protocol: To measure cytotoxicity of the different Dox formulations, KB-V1 cells were treated with free Dox, Dox-MSNP, PEI-Dox-MSNP and siRNA-PEI-Dox-MSNP, respectively. For the latter two particle types, incubation time was for 16 hrs before replenishment of the old medium with fresh complete DMEM and performance of a MTS assay at 72 hrs. Based on the absorption readout at 490 nm, the IC50 of free and Dox-loaded MSNP were calculated. The induction of apoptosis at 72 hours was assessed through the use of Annexin V-SYTOX Blue. Briefly, 5×10^5 cells were harvested and stained by FITC-Annexin V-SYTOX Blue working solution (Annexin V, Trevigen; SYTOX Blue, Invitrogen) at room temperature for 15 min. The cells were washed in binding buffer before performance of flow cytometry (Becton Dickinson, Mountain View, Calif.). Date analysis was performed by BD CellQuest. To confirm the flow data in which there may be a minor overlap of Dox with FITC-Annexin V, a TUNEL detection kit was used according to the manufacturer's instructions to confirm the induction of apoptosis. Briefly, 72 hrs following treatment with free Dox or Dox loaded particles, cells were washed, fixed, and permeabilized before TUNEL staining. The number of TUNEL-positive cells was assessed under a fluorescent microscope (200×). At least 3 fields were counted by the same investigator to calculate the percentage of TUNEL positive cells.
# KB-V1 cells [2] = assay: MTS cytotoxicity of free Dox, KB-V1; format: cell-based; settings: 72 hrs
# Protocol: (§1) KB-31 and KB-V1 cells were plated at 1×10^4 cells per well in 96 well plate. The cells were treated with free Dox in solution in doses ranging from 0.05-3.2 μg/ml (KB-31) and 0.1-64 μg/ml (KB-V1) for 72 hrs. The cell viability was determined by the MTS assay. The treated cells were incubated with MTS working solution for 2-3 hrs before measurement. The mean absorbance of non-exposed cells served as the reference value for calculating 100% cellular viability. To view Pgp expression, the cells were washed in PBS and the pellets lysed in a buffer containing Triton X-100 and protease inhibitors after centrifugation. The protein content of the supernatants was determined by the Bradford method. 100 μg total protein was electrophoresed by 10% SOS-PAGE and transferred to a PVDF membrane. After blocking, the membranes were incubated with 1:1000 dilution of primary monoclonal antibody to MDR1 (anti-Pgp C219, Abeam). The membranes were overlayed with goat anti-mouse secondary antibody (1:1000 dilution) before the addition of the HRP-conjugated streptavidin-biotin complex. The proteins were detected using ECL reagent according to the manufacturer's instructions.
# [3] = Body weight and major organ histology (Example 8); format: in vivo, nude mice; settings: weekly i.v. for 3 weeks
# Protocol: (§2) Nude mouse studies to determine the effect of doxorubicin-loaded NP3 on tumor shrinkage. One week after tumor implantation, the KB-31 tumor-bearing mice were randomly divided into four groups of five animals each. These groups were used for comparing the effects of saline, empty nanoparticles, free doxorubicin, and doxorubicin-loaded NP3, respectively. The latter group received intravenous administration of 120 mg/kg (˜2.4 mg per animal) NP3, which is equivalent to a doxorubicin dose of 4 mg/kg (˜0.08 mg per animal), weekly for 3 weeks. The free doxorubicin group received the same drug dose weekly for 3 weeks, while the group receiving empty NP3 was treated with 120 mg/kg on a weekly basis. The fourth group was treated with saline as control. The body weight and tumor size were accurately recorded twice per week. Tumor weight was calculated according to the formula: Tumor weight (mg)=(length in mm)× (width in mm)^2/2 (Meng et al., ACS Nano, vol. 4, pp. 2773-2783, 2010).
# Appropriate size sections of the tumor, liver, kidney, spleen, lung, heart, and brain were fixed in 10% formalin and then embedded into paraffin. Tissue sections of 4 μm thickness were mounted on glass slides by the UCLA Division of Laboratory Animal Medicine (DLAM) diagnostic laboratory services. The sections were stained with hematoxylin-eosin (H&E) and examined by light microscopy. The slides were read by an experienced veterinary pathologist.
# [4] = cited from earlier work
# KB-31 cells = assay: MTS cytotoxicity of free Dox, KB-31; format: cell-based; settings: KB-31, free Dox, 72 hrs
# Protocol: as §1
# KB-31 tumor xenograft [5] = assay: Tumor growth inhibition by doxorubicin-loaded NP3; format: in vivo, nude mice; settings: 4 mg/kg doxorubicin i.v. weekly for 3 weeks, tumor weight at sacrifice
# Protocol: Athymic BALB/c nu/nu female mice (6 weeks) were purchased from the Charles River Laboratory, and maintained under pathogen-free conditions. All animal experiments were performed using protocols approved by the UCLA Animal Research Committee. The tumor cell suspension (0.1 ml, 5×10^6 cells/mL) was injected subcutaneously into the mice. To perform imaging, the tumor-bearing animals were used 2.5 weeks after tumor implantation. In the tumor growth inhibition experiments, the nude mice were randomly divided into 4 groups and received the listed range of treatments, which commenced 1 week after tumor implantation.
# as §2, with “The free doxorubicin group received the same drug dose weekly for 3 weeks, while the group receiving empty NP3 was treated with 120 mg/kg on a weekly basis. The fourth group was treated with saline as control.” left out
# KB-31 tumor xenograft [6] = assay: TUNEL staining of the tumor tissue; format: in vivo, nude mice; settings: 4 mg/kg doxorubicin i.v. weekly for 3 weeks
# Protocol: A section of the tumor from each animal was used for TUNEL staining. The slides containing the tumor section were washed, fixed, and permeabilized before performance of TUNEL staining according to the manufacturer's instructions (Invitrogen, Carlsbad, Calif.). Nuclei were stained by Hoechst 33342 dye. The number of TUNEL positive cells (green staining) was assessed under a fluorescent microscope (200×). The same sections were also used for recording of the red fluorescent images of the doxorubicin that was present in the particles or the tissues. At least three fields were counted by the same investigator to calculate the percentage of TUNEL positive cells.
# [7] = Blood biochemistry to assess possible toxicity (Example 8); format: in vivo; settings: serum, tumor-bearing nude mice, weekly i.v. for 3 weeks, day 21
# Protocol: as §2
# Following the animal experiments described above, the mice were sacrificed on 21st day and serum collected by centrifuging the whole blood at 5,000 rpm for 15 min. The biochemical parameters, including cholesterol (CHOL), triglycerides (TRG), alanine aminotransferase (ALT), aspartate aminotransferase (AST), total bilirubin (TBILI), glucose (GLU), inorganic phosphorus (PHOS), total protein (TPR), calcium (CAL), blood urea nitrogen (BUN), creatinine (CRE), and albumin (ALB) were assayed by UCLA Division of Laboratory Animal Medicine (DLAM) diagnostic laboratory services.
smiles,measurement,setting,value
COc1cc2c(cc1OC)CN(CCc1ccc(NC(=O)c3cc(OC)c(OC)cc3NC(=O)c3cnc4ccccc4c3)cc1)CC2 [Tariquidar],effect of co-administration with free Dox on drug sensitivity,KB-V1 cells [1],partially restores drug sensitivity
"COc1cccc2c1C(=O)c1c(O)c3c(c(O)c1C2=O)C[C@@](O)(C(=O)CO)C[C@@H]3O[C@H]1C[C@H](N)[C@H](O)[C@H](C)O1.Cl [Free Dox, doxorubicin hydrochloride]",IC50 (MTS),KB-V1 cells [2],53.0 µg/mL
same,kidney histology,[3]; H&E,glomerular swelling
same,liver histology,[3]; H&E,prominent hepatic steatosis
same,body weight,[3]; compared to saline,cyclical decrease in body weight
same,pKa,[4],8.2
same,IC50 (MTS),KB-31 cells,0.21 µg/mL
same,tumor inhibition,KB-31 tumor xenograft [5],70%
same,TUNEL-positive cells in tumor tissue,KB-31 tumor xenograft [6],~13%
same,ALB,[7],2.4 ± 0.2 g/dL
same,ALT,[7],36.8 ± 8.0 u/L
same,AST,[7],347.8 ± 73.9 U/L
same,BUN,[7],17.3 ± 2.6 mg/dL
same,CAL,[7],9.0 ± 0.5 mg/dL
same,CHOL,[7],97.8 ± 12.8 mg/dL
same,CRE,[7],0.3 ± 0.1 mg/dL
same,GLU,[7],102.5 ± 29.2 mg/dL
same,PHOS,[7],9.5 ± 0.8 mg/dL
same,TBIL,[7],0.4 ± 0.0 mg/dL
same,TPR,[7],5.0 ± 0.4 g/dL
same,TRG,[7],91.5 ± 21.2 mg/dL
CCOc1ccc(-c2nc3ccc(-c4nc5ccc(N6CCN(C)CC6)cc5[nH]4)cc3[nH]2)cc1 [Hoechst 33342],pKa,[4],11.9
